Test results taken from US20140205586A1, “CONTROL OF BIOFILM FORMATION” (THE REGENTS OF THE UNIVERSITY OF MICHIGAN, priority 2010, published 2014).

How the values were obtained:
Acinetobacter [1] = assay: Bacterial initial attachment assay; assay type: cell-based; conditions: 125 μM dATP; visualized at 2 h, 4 h and 8 h post-treatment
Method: Bacterial initial attachment assay: 1% of an overnight culture was inoculated into the wells of 96-well glass bottom microplate containing 100 μl of 10% LB media, after predetermined incubation time, suspension was removed from each well and rinsed with PBS buffer for three times then biofilm samples were stained with LIVE/DEAD BacLight Bacterial Viability Kits (cat. L7007, Invitrogen) following the instructions in the manual. All microscopic observations and image acquisitions were performed with Olympus IX71 equipped with detectors and filter sets for monitoring of SYTO-9 and propidium iodide (PI). Images were obtained using a 60× objective.

E. coli = assay: Biofilm formation, crystal violet staining in 96-well plates; assay type: cell-based; conditions: 400 μM dATP
Method: (§1) Overnight LB-grown culture was diluted 100 times with 10% LB medium, and 100 μL of the dilution was inoculated into each well of 96-well plates. dATP, dGTP, DNase I, or apyrase was added into wells to result in the desired concentrations. An equivalent volume of 10% LB medium was added into wells as control. Plates were covered with lids and incubated at 30° C. for 16 hours before optical density (OD) was measured at 600 nm for the record of growth. Fifteen microliters of 0.1% crystal violet solution was added into each well for crystal violet staining (CV staining) After 15 min of staining, each well was washed gently three times with 100 μl of PBS buffer. Supernatant in each well was removed and 100 μl of 75% ethanol was added to dissolve crystal violet before measuring optical density at 600 nm (CV OD) for the quantification of biofilm biomass.
(§2) For visualization of biofilm structure (FIG. 2), biofilms were developed as described above. After 16 hours of incubation, supernatant was removed from each well and 100 μl of PBS buffer containing 0.1 mM SYTO-9 green, 10 mM Propidium Iodide (PI) was added for staining in dark for 15 min. Cell images were acquired with a Perkin Elmer UltraView confocal microscope system equipped with an Argon-Krypton laser. Images were taken with an oil immersion 60× objective lens in two channels (488 nm excitation for SYTO9 and 568 nm excitation for PI). […]

Acinetobacter [2] = assay: Extracellular DNA (eDNA) extraction and quantification; assay type: cell-based
Method: DNA extraction and quantification: Biofilms were developed as mentioned above for 16 hours and biofilm cells were resuspended with 0.9% NaCl solution, homogenized for 1 min and utilized for eDNA extraction. Planktonic cells were incubated at 30° C. for 8 hours with a 1% of inoculation and cells were washed with fresh 10% of LB broth three times before resuspension in the same volume of 10% of LB broth or 10% LB broth supplemented with 400 μM of dATP. The cells solutions were then incubated at 30° C. for another 2 hour and were ready for eDNA extraction. Biofilm cells suspension and planktonic cultures were treated as previously reported (27) for DNA extraction. Briefly, cell solution was treated with Dispersin B (20 μg/ml) at 37° C. for 30 min followed by treatment of proteinase K (5 μg/ml) for another 30 min at 37° C. Treated cell solution was filtered through a 0.2 μm syringe filter (PES, Water & Process Technologies), elute was used to extract the extracellular DNA by using ethanol precipitation. DNA was dissolved in 50 μl of sterile MilliQ water and the concentration of DNA was measured by using the PicoGreen dsDNA Quantitation Kit (Molecular Probes, Invitrogen).

Acinetobacter biofilms = assay: Biofilm biomass, crystal violet staining in 96-well plates; assay type: cell-based; conditions: 16 hours incubation
Method: as §1, §2

[3] = system: Acinetobacter baumannii ATCC 17978; assay: Bacterial adherence assay on human bronchial epithelial NCI-H292 cells; assay type: cell-based
Method: Bacterial adherence assay was performed as described ([…]; herein incorporated by reference in its entirety). Human bronchial epithelial cell line NCI-H292 (ATCC CRL-1848; American Tissue Culture Collection, Rockville, Md., USA) were cultured in a petri dish at 37° C. in RPMI 1640 medium (Gibco BRL, Grand Island, N.Y., USA), supplemented with 25 mM HEPES, 2 mM L-glutamine, penicillin G 100,000 U/L, streptomycin 50 mg/L and 10% (v/v) of fetal bovine serum (Gibco BRL), in a humidified atmosphere containing 5% (v/v) of CO2.
When NCI-H292 cells covered about 80% of the bottom of petri dish, the medium was replaced with 0.25% trypsin-EDTA (1689649, MP Biomedicals, Solon Ohio) and the petri dish was incubated at 37° C. for 10 min. NCI-H292 Cells were collected by cell scraper and washed with fresh RPMI 1640 medium three time by centrifuging at 300×g for 3 min. Washed cells were adjusted to the concentration of 1×10^5 cells per ml with fresh RPMI 1640 and 2 ml of cell solution were transferred to each well of a 12-well plate, which contained a 13-mm-diameter plastic coverslip (Thermanox, Nunc, Rochester, N.Y., USA) in each well. The cells were incubated at 37° C. for about 3 days until cells covered about 90% of coverslip and were then washed with phosphate buffered saline (PBS) three times. Acinetobacter baumannii ATCC 17978 grown overnight in Luria Bertani (LB) medium were collected and washed three times with fresh RPMI 1640 medium by centrifuging at 6,000 rpm for 3 min. Bacterial cells were adjusted to the concentration of 1×10^8 CFU/mL (OD600=0.05) and mixed with reagents (400 μM of dATP, or 200 mU/ml of apyrase) as necessary. Each cell monolayer was infected with 1 mL of bacterial suspension and incubated for 60 min at 37° C. in a CO2 5% v/v atmosphere. For damaged cell assays, NCI-H292 cells (around 5%) in the central area of plastic coverslips were damaged by tip of a knife before the infection performed. […] The number of bacteria adhering to 100 cells was determined. […]

Acinetobacter cultures = assay: CytoTox-Glo cytotoxicity assay (programmed cell death); assay type: cell-based; conditions: 24 h post-treatment
Excerpt: Cytotoxicity Assay: Planktonic cells and biofilm cells were collected as described above and washed with PBS buffer three times. Cell concentration was adjusted to 1-1.5×10^8 CFU/ml with PBS buffer and samples were ready for dead-cell protease activity, which had been released from cells that had lost membrane integrity, by using CytoTox-Glo™ Cytotoxicity Assay (Cat. G9291. Promega. Madison, Wis.) following the instructions by the manufacturer.

S. aureus = assay: Biofilm formation, crystal violet staining in 96-well plates; assay type: cell-based; conditions: 400 μM dATP
Method: as §1

S. maltophilia = assay: as above; assay type: cell-based; conditions: 400 μM dATP
Method: as §1

Acinetobacter baumannii = Acinetobacter baumannii adherence in mouse wound infection model; assay type: in vivo, C57BL/6 mice; conditions: burn wound sites treated with 400 mU/mL apyrase during inoculation
Method: Female pathogen-free C57BL/6 mice (Harlan, Indianapolis, Ind.), 12 weeks old, weighing approximately 20-23 grams were used in all experiments. Mice were housed in standard cages at the University Laboratory Animals Facility and were allowed to acclimate for 7 days after delivery prior to the experiment. The animals were kept on a 12 hour light cycle and were provided with rodent chow (LabDiet 5001, PMI Int'l., Richmond, Ind.) and water ad libitum throughout the study.
Pentobarbital (Nembutal, Ovation Pharmaceuticals, Inc., Deerfield, Ill., manufactured by Hospira, Lake Forest, Ill.) was administered intraperatonially (50 mg/kg IP) for anesthesia. During the study, all mice were singly housed and all received 0.1 mg/kg buprenorphine (Buprenex; Reckitt Benckiser Pharmaceuticals Inc., Richmond, Va.) subcutaneously (SQ) twice daily for post-burn pain control.
The skin over the lumbrosacral and back region was clipped using a 35-W model 5-55E electrical clipper (Oyster-Golden A-S, Head no. 80, blade size 40). Depilatory cream (Nair® lotion) was applied for about 1.5 minutes, then wiped off with a damp paper towel. Skin was rinsed under the faucet in lukewarm water and then blotted dry.
The first buprenorphine dose (67 ul/20 g, 83 ul/25 g mouse or 0.1 ug/g) was administered SQ under the skin of the upper back.
All 8 mice were burned. […]

Compound | rates of attachment in initial biofilm formation (Acinetobacter [1]) | biofilm formation (E. coli) | extracellular DNA (eDNA) release (Acinetobacter [2]; biofilm cultures, more pronounced effect than in planktonic) | extracellular DNA (eDNA) release (Acinetobacter [2]; planktonic cultures) | biofilm biomass (Acinetobacter biofilms) | aggregate formation on human bronchial epithelial cells ([3]; 400 μM dATP in media) | increase of A. baumannii adherence to human bronchial epithelial cells ([3]; 400 μM dATP in media, 1 hour after incubation) | programmed cell death (Cytotox-glo) (Acinetobacter cultures; biofilm form) | programmed cell death (Cytotox-glo) (Acinetobacter cultures; planktonic form) | biofilm formation (S. aureus) | biofilm formation (S. maltophilia) | adherence during initial stages of biofilm formation, cell count per gram of skin tissue (Acinetobacter baumannii) | effect on increased bacterial adherence (dATP or damaged cells) ([3]; Apyrase 200 mU/ml)
Nc1ncnc2c1ncn2[C@H]1C[C@H](O)[C@@H](COP(=O)(O)OP(=O)(O)OP(=O)(O)O)O1 [dATP, deoxyadenosine triphosphate] | accelerated rates of attachment | increased biofilm formation | Stimulation of extracellular DNA (eDNA) | Stimulation of extracellular DNA (eDNA) | stimulated biofilm biomass | promoted aggregate formation | about 100 fold | increased levels of programmed cell death | increased levels of programmed cell death | increased biofilm formation | increased biofilm formation | – | –
apyrase | – | – | – | – | reduced biomass | – | – | – | – | – | – | decreased adherence | completely arrested
